Earlier results in paper PMC4415995 (Advances in Therapy, 2015).

System: patients with T2DM
Conditions: cited from earlier work

For OC[C@H]1O[C@@H](c2ccc(Cl)c(Cc3ccc(O[C@H]4CCOC4)cc3)c2)[C@H](O)[C@@H](O)[C@@H]1O [empagliflozin], the “maximal UGE” value is listed as 85 to 100 g.

In the case of OC[C@H]1O[C@@H](c2ccc(F)c(Cc3cc4ccccc4s3)c2)[C@H](O)[C@@H](O)[C@@H]1O [ipragliflozin], the “maximal UGE” value is given as 85 to 100 g.

For Cc1ccc([C@@H]2O[C@H](CO)[C@@H](O)[C@H](O)[C@H]2O)cc1Cc1ccc(-c2ccc(F)cc2)s1 [canagliflozin], the “maximal UGE” value is listed as 85 to 100 g.

In the case of CCOc1ccc(Cc2cc([C@@H]3O[C@H](CO)[C@@H](O)[C@H](O)[C@H]3O)ccc2Cl)cc1 [dapagliflozin], the “maximal UGE” value is listed as 85 to 100 g.
